Measured values reported in PMC12366332 (Applied and Environmental Microbiology, 2025).
Ends that are not written are not given here.

Columns and labels:
E. coli 0111:B4 LPS = type: biochemical, Escherichia coli
horse erythrocytes = conditions: red cells of horse, 50 µM
[1] = test system: X. fastidiosa subsp. fastidiosa IVIA 5387.2; conditions: 50 µM
tobacco leaves = conditions: 150 µM; after 48 h

Row | Compound | LPS neutralization Ratio (treatment/NTC) (E. coli 0111:B4 LPS) | Hemolytic activity (%) (horse erythrocytes) | Bactericidal activity Level [1] | Bactericidal activity Reduction in viability (Log N0/N) [1] | Phytotoxicity: diameter of the lesion (tobacco leaves) [mm]
1 | CCCC(=O)NCCCC[C@H](NC(=O)[C@H](CCCCN)NC(=O)[C@H](CCCCN)NC(=O)[C@@H](Cc1ccccc1)NC(=O)[C@H](CC(C)C)NC(=O)[C@H](CCCCN)NC(=O)[C@H](CCCCN)NC(C)=O)C(=O)N[C@@H](CC(C)C)C(=O)N[C@@H](CCCCN)C(=O)N[C@@H](Cc1ccc(O)cc1)C(=O)N[C@@H](CC(C)C)C(N)=O [BP548, Ac-KKLfKKK(COC3H7)LKYL-NH2] | 0,65 | 0 | Low (key: Very High: very high bactericidal activity (>2.5 log); High: high bactericidal activity (between 2.0 and 2.5 log); Moderate: a moderate activity (between 1.5 and 2.0 log); Low: low active (<1.5 log)) | 0,28 Log N0/N | 6
2 | CCCC(=O)NCCCC[C@H](NC(=O)[C@H](CCCCN)NC(=O)[C@H](CCCCN)NC(C)=O)C(=O)N[C@H](Cc1ccccc1)C(=O)N[C@@H](CCCCN)C(=O)N[C@@H](CCCCN)C(=O)N[C@H](C(=O)N[C@@H](CC(C)C)C(=O)N[C@@H](CCCCN)C(=O)N[C@@H](Cc1ccc(O)cc1)C(=O)N[C@@H](CC(C)C)C(N)=O)[C@@H](C)CC [BP549, Ac-KKK(COC3H7)fKKILKYL-NH2] | 1,10 | 1 | Low (key: Very High: very high bactericidal activity (>2.5 log); High: high bactericidal activity (between 2.0 and 2.5 log); Moderate: a moderate activity (between 1.5 and 2.0 log); Low: low active (<1.5 log)) | 1,19 Log N0/N | 5
3 | CCCC(=O)NCCCC[C@@H](NC(=O)[C@H](CC(C)C)NC(=O)[C@H](CCCCN)NC(=O)[C@H](CCCCN)NC(C)=O)C(=O)N[C@@H](CCCCN)C(=O)N[C@@H](CCCCN)C(=O)N[C@H](C(=O)N[C@@H](CC(C)C)C(=O)N[C@@H](CCCCN)C(=O)N[C@@H](Cc1ccc(O)cc1)C(=O)N[C@@H](CC(C)C)C(N)=O)[C@@H](C)CC [BP550, Ac-KKLk(COC3H7)KKILKYL-NH2] | 1,09 | 3 | Low (key: Very High: very high bactericidal activity (>2.5 log); High: high bactericidal activity (between 2.0 and 2.5 log); Moderate: a moderate activity (between 1.5 and 2.0 log); Low: low active (<1.5 log)) | 0,00 Log N0/N | 5
4 | NIKISGKWKAQKRFLK-NH2 [BPI(84-99), NIKISGKWKAQKRFLK-NH2, reference compound] | 0,29 | 7 | Low (key: Very High: very high bactericidal activity (>2.5 log); High: high bactericidal activity (between 2.0 and 2.5 log); Moderate: a moderate activity (between 1.5 and 2.0 log); Low: low active (<1.5 log)) | 0,84 Log N0/N | 1
5 | RVQGRWKVRASFFK-NH2 [LBP-14, RVQGRWKVRASFFK-NH2, reference compound] | 0,23 | 7 | Low (key: Very High: very high bactericidal activity (>2.5 log); High: high bactericidal activity (between 2.0 and 2.5 log); Moderate: a moderate activity (between 1.5 and 2.0 log); Low: low active (<1.5 log)) | 0,51 Log N0/N | 1
6 | YVKLWRMIKFIR-NH2 [YW12D, YVKLWRMIKFIR-NH2, reference compound] | 0,21 | 12 | Low (key: Very High: very high bactericidal activity (>2.5 log); High: high bactericidal activity (between 2.0 and 2.5 log); Moderate: a moderate activity (between 1.5 and 2.0 log); Low: low active (<1.5 log)) | 0,59 Log N0/N | 1
